Laboratory results from paper PMC9609429 (Pharmaceuticals, 2022).

Assays:
[1] = molecular target: α2-adrenoceptor; assay: α2-adrenoceptor radioligand binding assay ([3H]-clonidine, rat cerebral cortex)
Experimental: The α1-, α2-, and β1-adrenoceptor radioligand binding assay was carried out on the rat cerebral cortex. […] The brains were homogenized using ULTRA-TURRAX homogenizer in 10 mL of an ice-cold 50 mM Tris–HCl buffer (pH 7.6). Homogenates were centrifuged at 20,000× g for 20 min (0–4 °C). Next, the cell pellet was resuspended in the Tris–HCl buffer and centrifuged again. Radioligand binding assays were performed in plates (MultiScreen/Millipore). The final incubation mixture (volume 300 μL) consisted of 240 μL of the tissue suspension, 30 μL of radioligand solution, and 30 μL of the buffer containing 7–8 concentrations of the tested compound. […] The incubation was terminated by rapid filtration through Whatman GF/C filters using a vacuum manifold (Millipore). The filters were then washed twice with the assay buffer and placed in scintillation vials with a liquid scintillation cocktail. […] All the assays were made in duplicates and the inhibitory constants (Ki) were estimated.

[2] = test system: adrenaline-induced arrhythmia in rats; assay: Prophylactic antiarrhythmic activity in adrenaline-induced arrhythmia; assay type: in vivo, rat
Experimental: The experiment was carried out according to the method described by Szekeres and Papp. Normotensive rats were anesthetized with thiopental (75 mg/kg ip). Adrenaline was administered at the dose of 20 µg/kg to induce heart rhythm disturbances. The studied compound was injected intraperitoneally 45 min before the arrhythmogen. The electrocardiogram (ECG) was recorded during the first 2 min and in the 5th, 10th, and 15th min after the adrenaline injection. The criterion of prophylactic antiarrhythmic activity was the lack of extrasystoles and inhibition of cardiac arrhythmia in comparison with the control group. The ED50 (a dose producing a 50% inhibition of ventricular contractions) was determined by computer log-probit analysis according to Litchfield and Wilcoxon.

[3] = test system: α1-adrenergic receptors; assay: Influence on blood vasopressor response to adrenaline, noradrenaline and methoxamine in rats; assay type: in vivo; conditions: rat, 1.25 mg/kg iv, 5 min after administration
Experimental: To establish agonistic or antagonistic toward α1-adrenergic receptors, we studied the influence of the studied compound on the pressor response to adrenaline (2 µg/kg), noradrenaline (2 µg/kg), and methoxamine (150 µg/kg). Normotensive rats were anesthetized with thiopental (75 mg/kg ip). The right carotid artery was cannulated with a polyethylene tube filled with heparin solution to allow pressure measurements, using a Datamax apparatus (Columbus Instruments, Columbus, OH, USA). The experiment was carried out after 15 min of the stabilization period. The pressor response to adrenaline, noradrenaline, and methoxamine was measured before (control) and 5 min after the administration of the tested compound.

[4] = test system: 5-HT1A receptors; set-up: method as in PMID 34451841; conditions: previous studies; cited from earlier work

Question: For `CCC(CN1CCN(c2ccccc2OC)CC1)NCCCOc1c(C)cccc1C.Cl.Cl` (centres unmarked) [HBK-10, N-(3-(2,6-dimethylphenoxy)propyl)-1-(4-(2-methoxyphenyl)piperazin-1-yl)butan-2-amine dihydrochloride], which “Adrenergic Receptors—pKi α2” value ([1]; rat cortex tissue, [3H]-clonidine) is on record?
Answer: Its value is 5.72.

Question: What about the “affinity towards α2-adrenoceptor lower compared with the α1 receptor” value ([1]; rat cortex, α1 vs α2) of the same compound?
Answer: Its value is “over 600 fold”.

Question: And the “ED50 lower than for carvedilol” value ([2]; HBK-10 ip vs carvedilol iv)?
Answer: The value was ~3 fold.

Question: What about the “Extrasystoles (%)” value ([2]; rat, 0.0625 mg/kg ip 45 min before adrenaline 20 μg/kg iv) of the same compound?
Answer: Its value is 83.3%.

Question: And the “Extrasystoles (%)” value ([2]; rat, 0.125 mg/kg ip 45 min before adrenaline 20 μg/kg iv)?
Answer: Its value is 50%.

Question: What about the “Extrasystoles (%)” value ([2]; rat, 0.25 mg/kg ip 45 min before adrenaline 20 μg/kg iv) of the same compound?
Answer: The value was 16.7%.

Question: And the ED50 ([2]; rat, ip 45 min before adrenaline 20 μg/kg iv, read-out: ED50 (extrasystoles caused by adrenaline))?
Answer: Its ED50 is 0.125 mg/kg.

Question: What about the “attenuation of adrenaline pressor response” value ([3]; adrenaline 2 μg/kg) of the same compound?
Answer: Its value is 77.2%.

Question: What about the “attenuation of methoxamine pressor response” value ([3]; methoxamine 150 μg/kg) of the same compound?
Answer: Its value is 77.4%.

Question: And the “attenuation of noradrenaline pressor response” value ([3]; noradrenaline 2 μg/kg)?
Answer: Its value is 32.5%.

Question: What about the “properties at 5-HT1A receptors” value [4] of the same compound?
Answer: The value was “antagonistic properties”.
